Data on one compound can be found in publication PMC5963591, “Bitopic Binding Mode of an M1 Muscarinic Acetylcholine Receptor Agonist Associated with Adverse Clinical Trial Outcomes” (Molecular Pharmacology, 2018).

In one data set the target is T1, wild-type M1 mAChR (Homo sapiens, UniProt P11229).
T1 construct: HA; expressed in transfected cells; host or cells: CHO Flp-In
Description: Receptor phosphorylation at serine 228, M1 wild type, CHO Flp-In cells. Type of data set: cell-based.

The target of a further data set is T2, M1 DREADD (Homo sapiens, UniProt P11229, A196G/Y106C).
T2 construct: HA; expressed in transfected cells; host or cells: CHO Flp-In
Nature of the data set: Receptor phosphorylation at serine 228, M1 DREADD, CHO Flp-In cells. In kind it is cell-based. The settings on record: compared with wild type.

In a further data set the target is T3, human mAChR M1 (Homo sapiens, UniProt P11229).
T3 construct: purchased PerkinElmer; host or cells: CHO
Description: [3H]-NMS competition binding, CHO membranes, M1. The protocol:
(§1) For competition binding experiments at M1, M2, M3, M4, and M5 mAChRs, CHO membranes were purchased from PerkinElmer. All experiments were performed in assay buffer of the following composition: 20 mM HEPES, 100 mM NaCl, and 10 mM MgCl2, pH 7.5, and used 10 µg protein/well in a total assay volume of 1 ml using deep well blocks. […] All assay incubations were initiated by the addition of membrane suspensions and deep well blocks were shaken for 5 minutes to ensure complete mixing. Incubation was then carried out for 2 hours at 21°C. Binding reactions were terminated by rapid filtration through GF/A filters (PerkinElmer) presoaked with 0.5% (w/v) polyethylenimine for 1 hour. Filters were then washed three times with 1 ml ice-cold assay buffer.
(§2) Inhibition binding data were curve-fit using GraphPad Prism 6 to derive the potency (IC50) of the test compound. The equilibrium dissociation constant (KI) of the test compound was then calculated with the Cheng–Prusoff equation: KI = IC50/[1 + ([L]/KD)] using the KD value derived separately from saturation binding studies.

The target in a further data set is T4, human mAChR M3 (Homo sapiens, UniProt P20309).
T4 construct: purchased PerkinElmer; host or cells: CHO
Description: [3H]-NMS competition binding, CHO membranes, M3. The settings on record: compared with other subtypes. The protocol: as §1, §2

The next data set deals with T5, human mAChR M4 (Homo sapiens, UniProt P08173).
T5 construct: purchased PerkinElmer; host or cells: CHO
Description: [3H]-NMS competition binding, CHO membranes, M4. The method, then:
as §1, §2

The next data set has as its target T6, M3 mAChR (Homo sapiens, UniProt P20309).
T6 construct: expressed in transfected cells; host or cells: CHO
Nature of the data set: ERK1/2 phosphorylation, CHO cells, M3. Type of data set: cell-based.

In another data set the target is T7, M5 mAChR (Homo sapiens, UniProt P08912).
T7 construct: expressed in transfected cells; host or cells: CHO
Description: ERK1/2 phosphorylation, CHO cells, M5. In kind it is cell-based.

The target in data set [1] is T8, M2 mAChR (isolated rat atria) (Rattus norvegicus, UniProt P10980).
T8 construct: from tissue; host or cells: left atria of adult Wistar rats
T8 sequence (P10980 1-466): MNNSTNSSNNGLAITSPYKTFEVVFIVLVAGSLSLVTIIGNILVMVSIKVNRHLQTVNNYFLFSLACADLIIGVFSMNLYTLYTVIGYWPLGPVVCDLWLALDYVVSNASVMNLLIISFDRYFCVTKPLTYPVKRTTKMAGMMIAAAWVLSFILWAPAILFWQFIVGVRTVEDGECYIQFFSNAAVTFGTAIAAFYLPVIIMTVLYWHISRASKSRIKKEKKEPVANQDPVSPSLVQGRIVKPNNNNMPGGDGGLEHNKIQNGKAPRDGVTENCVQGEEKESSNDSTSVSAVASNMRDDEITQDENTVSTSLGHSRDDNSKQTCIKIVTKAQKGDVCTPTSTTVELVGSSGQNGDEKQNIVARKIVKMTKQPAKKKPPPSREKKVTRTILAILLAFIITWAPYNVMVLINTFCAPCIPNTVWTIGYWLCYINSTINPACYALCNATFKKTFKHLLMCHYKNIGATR
Description: Isolated rat atria, negative inotropic response. The settings on record: single experiment. The protocol: Adult Wistar rats were humanely euthanized and the left atria and the ileum were placed in an organ bath containing oxygenated Tyrode solution. Measurement of negative inotropic responses in atria or contraction of ileum was performed as described by [Lambrecht et al. (1989)]. For atrial responses, ligands were administered for 5 minutes at 32°C in McEwen’s buffer (pH 7.4) in a bath volume of 10 ml. […] For rat ileum experiments, ligands were administered for 5 minutes at 32°C in Krebs’ buffer (pH 7.4) in a bath volume of 10 ml. Contraction of ileum as a percentage of methacholine-induced contraction was measured, and antagonistic effects were measured by inhibition of methacholine-induced responses.

The test system of another data set is rodents. Set-up: method as in Budzik et al., 2010. The settings on record: ref Budzik et al., 2010; cited from earlier work.
For the next data set, the system named is humans. More on the design: method as in Nathan et al., 2013. The conditions noted are these: ref Nathan et al., 2013; cited from earlier work.
The target of data set [2] is T9, human M1 mAChR (Homo sapiens, UniProt P11229).
T9 sequence (P11229 1-460): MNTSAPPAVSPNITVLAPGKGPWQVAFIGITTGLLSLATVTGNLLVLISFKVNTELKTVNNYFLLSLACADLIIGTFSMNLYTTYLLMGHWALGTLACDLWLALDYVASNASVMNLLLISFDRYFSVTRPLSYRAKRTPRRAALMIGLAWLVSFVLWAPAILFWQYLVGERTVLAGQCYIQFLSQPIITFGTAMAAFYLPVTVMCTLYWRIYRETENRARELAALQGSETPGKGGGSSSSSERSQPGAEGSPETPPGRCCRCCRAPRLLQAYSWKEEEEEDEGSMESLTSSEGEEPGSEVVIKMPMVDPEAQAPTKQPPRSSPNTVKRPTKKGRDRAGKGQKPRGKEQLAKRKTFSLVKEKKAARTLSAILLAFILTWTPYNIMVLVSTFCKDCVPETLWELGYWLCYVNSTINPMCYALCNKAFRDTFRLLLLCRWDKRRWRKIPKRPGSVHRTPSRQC
Description: Equilibrium [3H]-NMS binding, CHO Flp-In cell monolayers, wild-type M1. Set-up: expressed in transfected cells; host or cells: CHO Flp-In. The method, then:
(§3) Prior to the experiment, cells were washed with 100 μl phosphate-buffered saline. […] Binding was terminated by rapid aspiration followed by two washes with 200 μl ice-cold 0.9% NaCl. Bound radioactivity was determined by liquid scintillation (Ultima Gold; PerkinElmer, Boston, MA) counting. Nonspecific binding was determined in the presence of 10 μM atropine.
as §2

For data set [3], the target named is T9, human M1 mAChR. Description: [3H]-NMS binding interaction studies with BQCA. More on the design: expressed in transfected cells; host or cells: CHO Flp-In. The conditions noted are these: increasing concentrations of BQCA. The method, then:
as §3

Each structure is given as a SMILES string.

T2 sequence (P11229 whole entry Y106C/A196G): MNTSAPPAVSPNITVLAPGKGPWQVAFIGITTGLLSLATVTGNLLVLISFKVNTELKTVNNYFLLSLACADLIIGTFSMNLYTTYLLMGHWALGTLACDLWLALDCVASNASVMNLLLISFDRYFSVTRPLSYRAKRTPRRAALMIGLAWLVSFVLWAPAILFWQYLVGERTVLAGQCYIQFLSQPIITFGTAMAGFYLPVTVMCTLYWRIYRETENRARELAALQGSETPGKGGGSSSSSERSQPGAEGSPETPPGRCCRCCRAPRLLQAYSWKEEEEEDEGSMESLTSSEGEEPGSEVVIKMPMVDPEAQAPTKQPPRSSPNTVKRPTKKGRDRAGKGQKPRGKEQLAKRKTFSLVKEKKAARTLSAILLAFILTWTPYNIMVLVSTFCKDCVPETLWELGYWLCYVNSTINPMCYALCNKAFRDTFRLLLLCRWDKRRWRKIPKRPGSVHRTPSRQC
T7 sequence (P08912 whole entry): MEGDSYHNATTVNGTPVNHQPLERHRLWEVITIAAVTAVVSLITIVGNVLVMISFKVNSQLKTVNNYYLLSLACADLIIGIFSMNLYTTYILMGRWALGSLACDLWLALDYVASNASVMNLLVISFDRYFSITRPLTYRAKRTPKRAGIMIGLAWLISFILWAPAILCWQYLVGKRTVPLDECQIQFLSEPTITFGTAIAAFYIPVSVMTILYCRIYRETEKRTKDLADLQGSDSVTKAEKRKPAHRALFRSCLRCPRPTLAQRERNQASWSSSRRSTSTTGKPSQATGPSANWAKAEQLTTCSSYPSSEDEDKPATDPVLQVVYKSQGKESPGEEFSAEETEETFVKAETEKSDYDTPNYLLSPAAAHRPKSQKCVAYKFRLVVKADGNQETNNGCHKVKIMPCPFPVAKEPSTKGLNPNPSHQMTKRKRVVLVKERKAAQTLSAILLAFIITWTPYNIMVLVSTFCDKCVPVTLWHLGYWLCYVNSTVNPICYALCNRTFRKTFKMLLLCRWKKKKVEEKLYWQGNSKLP
T4 sequence (P20309 whole entry): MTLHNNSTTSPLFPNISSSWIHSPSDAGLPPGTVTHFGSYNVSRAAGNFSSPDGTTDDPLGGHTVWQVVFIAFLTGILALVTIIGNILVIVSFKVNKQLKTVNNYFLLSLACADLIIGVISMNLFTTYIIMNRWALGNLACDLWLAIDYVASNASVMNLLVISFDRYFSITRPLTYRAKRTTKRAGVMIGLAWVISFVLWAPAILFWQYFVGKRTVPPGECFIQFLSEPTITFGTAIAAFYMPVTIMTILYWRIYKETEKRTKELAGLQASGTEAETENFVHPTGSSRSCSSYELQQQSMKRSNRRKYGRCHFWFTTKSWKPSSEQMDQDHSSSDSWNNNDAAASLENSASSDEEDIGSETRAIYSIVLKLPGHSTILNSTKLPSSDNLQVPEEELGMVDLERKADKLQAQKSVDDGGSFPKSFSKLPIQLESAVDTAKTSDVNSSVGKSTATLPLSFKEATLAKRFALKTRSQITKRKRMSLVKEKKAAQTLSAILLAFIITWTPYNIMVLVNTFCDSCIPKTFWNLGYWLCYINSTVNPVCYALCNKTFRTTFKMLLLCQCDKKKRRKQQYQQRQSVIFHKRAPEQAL
T6 sequence (P20309 whole entry): as above
T5 sequence (P08173 whole entry): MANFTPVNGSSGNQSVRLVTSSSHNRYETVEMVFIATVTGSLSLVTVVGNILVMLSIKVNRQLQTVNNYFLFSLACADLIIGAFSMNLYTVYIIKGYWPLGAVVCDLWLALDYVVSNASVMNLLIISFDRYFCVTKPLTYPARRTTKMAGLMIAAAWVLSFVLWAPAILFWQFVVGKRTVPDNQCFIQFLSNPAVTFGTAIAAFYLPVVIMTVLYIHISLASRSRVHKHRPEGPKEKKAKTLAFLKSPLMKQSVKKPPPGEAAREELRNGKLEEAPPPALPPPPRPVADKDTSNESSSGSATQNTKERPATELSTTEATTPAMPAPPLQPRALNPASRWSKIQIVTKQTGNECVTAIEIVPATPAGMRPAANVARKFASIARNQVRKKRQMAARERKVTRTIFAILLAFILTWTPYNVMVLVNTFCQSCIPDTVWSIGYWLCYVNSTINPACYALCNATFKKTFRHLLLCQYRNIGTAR

For `Cc1cc(F)c2[nH]c(=O)n(C3CCN(C4CCOCC4)CC3)c2c1` [GSK1034702, 7-fluoro-5-methyl-3-[1-(oxan-4-yl)piperidin-4-yl]-1H-benzimidazol-2-one], the pSer228 immunoreactivity entry at wild-type M1 mAChR is on record as “concentration-dependent increase”. In addition, the “phosphorylation at serine 228” value on M1 DREADD is “unchanged”. Also, the values for the Ki on human mAChR M1, at human mAChR M4 and on human M1 mAChR [2] were 1000 nM, 2000 nM and 316 nM, respectively. The “affinity for the M3 mAChR” value at human mAChR M3 is on record as “much lower affinity”. In addition, the “functional activity in ERK1/2 phosphorylation” value was “devoid of activity” on M3 mAChR and “partial agonist activity” at M5 mAChR. For the same compound, the concentration for half-maximal inhibition (IC50) in [1] (methacholine 1 μM, read-out: IC50, inhibition of methacholine-induced responses in rat atria) came out at 8000 nM. The “maximal negative inotropic response in rat atria” value in data set [1] (relative to methacholine) was “maximal response equivalent to that of methacholine”. For the same compound, the “potency, negative inotropic response in rat atria” value in data set [1] is reported as “micromolar potency”. The “effect on scopolamine-induced amnesia” value in the data set with rodents is “reversed scopolamine-induced amnesia”. The adverse effects result in the data set on humans is “induced gastrointestinal adverse effects”. Further, the “effect on cognitive function” value in the data set on humans is on record as “positive effects on cognitive function”. Further, the “inhibition of [^3H]-NMS binding” value at human M1 mAChR [2] ([^3H]-NMS 0.5 nM, CHO Flp-In cell monolayers) is “fully inhibited”. Further, the “modulation by BQCA of the displacement of [^3H]-NMS” value on human M1 mAChR [3] is reported as “not modulated”.
